Results as given in patent US9650390B2, “Water-soluble taxane derivatives and uses thereof” (priority 2014, dated 2017).

Legend:
[1] = In vitro dissociation in blood plasma of rat; type: in vitro ADME, SD rats; conditions: fresh SD rat plasma, 37° C.; for Sampling time/Dissociation percent (%) 2 min: 2 min incubation; for Sampling time/Dissociation percent (%) 5 min: 5 min incubation; for Sampling time/Dissociation percent (%) 10 min: 10 min incubation
Description: The obtained water soluble taxane derivatives of the following formulae were formulated as 0.2 mg/ml aqueous solutions. […] After 2 min, 5 min and 10 min of incubation, 0.2 ml of solutions were respectively taken from each of the samples, and added to acetonitrile (0.4 ml) cooled to −20° C. for precipitation of protein.

[2] = In vitro dissociation in blood plasma of rabbit; type: in vitro ADME, New Zealand white rabbits; conditions: fresh New Zealand white rabbit plasma, 37° C.
Description: The obtained water soluble taxane derivatives of the following formulae were formulated as 0.2 mg/ml aqueous solutions. […]

[3] = test system: human ovarian cancer SK-OV-3; conditions: 24 mg/kg, D0-4 IV; for Body weight change (%) D4: nude mice; for T/C (%) D22 / Tumor volume (mm^3) (D0) / Tumor volume (mm^3) (D22) / Tumor inhibitory percent (%) D22: SK-OV-3 xenograft in nude mice; for Tumor volume (mm^3) (D0): baseline at grouping (D0); for Tumor inhibitory percent (%) D22: P = 0.000 vs control
Description: Purpose: to evaluate and compare the inhibitory activity of the water soluble paclitaxel derivatives, paclitaxel and Abraxane® on subcutaneously xenografted tumor of human ovarian cancer SK-OV-3 in nude mice.
Human ovarian cancer SK-OV-3 cells were subcutaneously inoculated to nude mice. After the tumor volume reached 100-150 mm^3, the animals were randomly divided into groups (D0), and administered with the water soluble paclitaxel derivatives of the following formula, paclitaxel, and Abraxane®, respectively once per day for 5 days. The tumor volume was measured 2-3 times per week, the animals were weighed and the data were recorded until day 22 (D22) after grouping.
(§1) The tumor volume (V) was calculated according to the equation: V=½×a×b^2, wherein a and b represent the length and the width, respectively.
T/C (%)=(T−T0)/(C−C0)×100, wherein T and C represent the tumor volume at the end of the experiment, and T0 and C0 represent the tumor volume at the beginning of the experiment.

[4] = test system: human prostate cancer PC-3; test: Inhibitory activity of cabazitaxel derivatives on subcutaneously xenografted tumor PC-3 in nude mice; conditions: D0 IV; for Weight change (%) D6: nude mice; for T/C (%) D20 / Tumor volume (mm^3) (D20) / Tumor inhibitory percent (%) D20 / Tumor volume (mm^3) (D0): PC-3 xenograft in nude mice; for Tumor inhibitory percent (%) D20: P = 0.000 vs control; for Tumor volume (mm^3) (D0): baseline at grouping (D0)
Description: Purpose: to evaluate and compare the inhibitory activity of the water soluble cabazitaxel derivatives and cabazitaxel on subcutaneously xenografted tumor of human prostate cancer PC-3 in nude mice.
Human prostate cancer PC-3 cells were subcutaneously inoculated into nude mice. After the tumor volume reached 100-150 mm^3, the animals were randomly divided into several groups, and administered with the water soluble cabazitaxel derivatives of the following formula and cabazitaxel, respectively once on the same day (D0). The tumor volume was measured 2-3 times per week, the animals were weighed and the data were recorded until day 20 (D20) after grouping.
as §1
T/C (%)=(T−T0)/(C−C0)×100, wherein T and C represent the tumor volume at the end of the experiment; and T0 and C0 represent the tumor volume at the beginning of the experiment.

Compound | Body weight change (%) D4 [3] | T/C (%) D22 [3] | Tumor volume (mm^3) (D0) [3] | Tumor volume (mm^3) (D22) [3] | T/C (%) D20 ([4]; 13 mg/kg) | Tumor volume (mm^3) (D20) ([4]; 13 mg/kg) | Tumor inhibitory percent (%) D20 ([4]; 13 mg/kg) | Tumor volume (mm^3) (D0) ([4]; 13 mg/kg) | further results
CC(=O)O[C@H]1C(=O)[C@@]2(C)[C@H]([C@H](OC(=O)c3ccccc3)[C@]3(O)C[C@H](OC(=O)[C@H](OC(=O)[C@H](F)CCN(C)C)[C@@H](NC(=O)c4ccccc4)c4ccccc4)C(C)=C1C3(C)C)[C@]1(OC(C)=O)CO[C@@H]1C[C@@H]2O.CS(=O)(=O)O [Compound C1, 2′-O-[4-N,N-dimethylamino-2(R)-fluorobutyryl]paclitaxel methanesulfonate] | −5.9% | −63% | 133.6 ± 9.5 mm^3 | – | – | – | – | – | Sampling time/Dissociation percent (%) 2 min [1]: 64.3%; Sampling time/Dissociation percent (%) 5 min [1]: 97.0%; Sampling time/Dissociation percent (%) 10 min [1]: 100%; Sampling time/Dissociation percent (%) 2 min [2]: 77.2%; Sampling time/Dissociation percent (%) 5 min [2]: 98.4%; Sampling time/Dissociation percent (%) 10 min [2]: 100%
CC(=O)O[C@H]1C(=O)[C@@]2(C)[C@H]([C@H](OC(=O)c3ccccc3)[C@]3(O)C[C@H](OC(=O)[C@H](OC(=O)[C@@H](F)CCN(C)C)[C@@H](NC(=O)c4ccccc4)c4ccccc4)C(C)=C1C3(C)C)[C@]1(OC(C)=O)CO[C@@H]1C[C@@H]2O.CS(=O)(=O)O [Compound C2, 2′-O-[4-N,N-dimethylamino-2(S)-fluorobutyryl]paclitaxel methanesulfonate] | −5.8% | −61% | – | 51.2 ± 11.2 mm^3 | – | – | – | – | Sampling time/Dissociation percent (%) 2 min [1]: 62.8%; Sampling time/Dissociation percent (%) 5 min [1]: 96.5%; Sampling time/Dissociation percent (%) 10 min [1]: 100%; Sampling time/Dissociation percent (%) 2 min [2]: 69.7%; Sampling time/Dissociation percent (%) 5 min [2]: 98.1%; Sampling time/Dissociation percent (%) 10 min [2]: 100%
CC(=O)O[C@H]1C(=O)[C@@]2(C)[C@H]([C@H](OC(=O)c3ccccc3)[C@]3(O)C[C@H](OC(=O)[C@H](OC(=O)C(F)CCN(C)C)[C@@H](NC(=O)c4ccccc4)c4ccccc4)C(C)=C1C3(C)C)[C@]1(OC(C)=O)CO[C@@H]1C[C@@H]2O.CS(=O)(=O)O (stereo partly drawn) [Compound C3, 2′-O-[4-N,N-dimethylamino-2(R,S)-fluorobutyryl]paclitaxel methanesulfonate] | −6.0% | −64% | – | 50.6 ± 9.7 mm^3 | – | – | – | – | Sampling time/Dissociation percent (%) 2 min [1]: 63.7%; Sampling time/Dissociation percent (%) 5 min [1]: 96.8%; Sampling time/Dissociation percent (%) 10 min [1]: 100%; Sampling time/Dissociation percent (%) 2 min [2]: 76.5%; Sampling time/Dissociation percent (%) 5 min [2]: 94.6%; Sampling time/Dissociation percent (%) 10 min [2]: 100%
CC(=O)OC1C(=O)C2(C)C(O)CC3OCC3(OC(C)=O)C2C(OC(=O)c2ccccc2)C2(O)CC(OC(=O)C(OC(=O)C(CCN(C)C)C(F)(F)F)C(NC(=O)c3ccccc3)c3ccccc3)C(C)=C1C2(C)C.Cc1ccc(S(=O)(=O)O)cc1 [Compound C21, 2′-O-[4-N,N-dimethylamino-2(R,S)-2-trifluoromethylbutyryl]paclitaxel p-toluene sulfonate] | −8.9% | −48% | 134.9 ± 11.4 mm^3 | 57.3 ± 11.4 mm^3 | – | – | – | – | –
CC(=O)O[C@H]1C(=O)[C@@]2(C)[C@H]([C@H](OC(=O)c3ccccc3)[C@]3(O)C[C@H](OC(=O)[C@H](OC(=O)C(CCN(C)C)C(F)F)[C@@H](NC(=O)c4ccccc4)c4ccccc4)C(C)=C1C3(C)C)[C@]1(OC(C)=O)CO[C@@H]1C[C@@H]2O.Cl (stereo partly drawn) [Compound C22, 2′-O-[4-N,N-dimethylamino-2(R,S)-2-difluoromethylbutyryl]paclitaxel hydrochloride] | −8.4% | −35% | 133.4 ± 12.6 mm^3 | 61.2 ± 13.5 mm^3 | – | – | – | – | Tumor inhibitory percent (%) D22 [3]: 135%
CC(=O)OC1C(=O)C2(C)C(O)CC3OCC3(OC(C)=O)C2C(OC(=O)c2ccccc2)C2(O)CC(OC(=O)C(OC(=O)C(F)CC(C)N(C)C)C(NC(=O)c3ccccc3)c3ccccc3)C(C)=C1C2(C)C.O=C(O)C=CC(=O)O [Compound C23, 2′-O-[4-N,N-dimethylamino-2(R)-fluorovaleryl]paclitaxel maleate] | −9.4% | −23% | 135.8 ± 14.7 mm^3 | 70.8 ± 16.8 mm^3 | – | – | – | – | Tumor inhibitory percent (%) D22 [3]: 60%
CCN(C)CC[C@@H](F)C(=O)O[C@@H](C(=O)O[C@H]1C[C@@]2(O)[C@@H](OC(=O)c3ccccc3)[C@@H]3[C@]4(OC(C)=O)CO[C@@H]4C[C@H](OC)[C@@]3(C)C(=O)[C@H](OC)C(=C1C)C2(C)C)[C@@H](NC(=O)OC(C)(C)C)c1ccccc1.O=C(O)/C=C\C(=O)O [Compound C32, 2′-O-[4-N-methyl-N-ethylamino-2(R)-fluorobutyryl]cabazitaxel maleate] | – | – | – | – | −56% | 35.8 ± 12.7 mm^3 | 128% | 112.4 ± 3.0 mm^3 | Weight change (%) D6 ([4]; 13 mg/kg): −14.7%
CCN(CC)CC[C@@H](F)C(=O)O[C@@H](C(=O)O[C@H]1C[C@@]2(O)[C@@H](OC(=O)c3ccccc3)[C@@H]3[C@]4(OC(C)=O)CO[C@@H]4C[C@H](OC)[C@@]3(C)C(=O)[C@H](OC)C(=C1C)C2(C)C)[C@@H](NC(=O)OC(C)(C)C)c1ccccc1.CS(=O)(=O)O [Compound C33, 2′-O-[4-N,N-diethylamino-2(R)-fluorobutyryl]cabazitaxel methanesulfonate] | – | – | – | – | −50% | 38.6 ± 13.4 mm^3 | 114% | 112.0 ± 2.4 mm^3 | Weight change (%) D6 ([4]; 13 mg/kg): −15.1%
CO[C@H]1C(=O)[C@]2(C)[C@@H](OC)C[C@H]3OC[C@@]3(OC(C)=O)[C@H]2[C@H](OC(=O)c2ccccc2)[C@]2(O)C[C@H](OC(=O)[C@H](OC(=O)[C@H](F)CCN(C)C(C)C)[C@@H](NC(=O)OC(C)(C)C)c3ccccc3)C(C)=C1C2(C)C.Cl [Compound C34, 2′-O-[4-N-methyl-N-isopropylamino-2(R)-fluorobutyryl]cabazitaxel hydrochloride] | – | – | – | – | −45% | 42.8 ± 11.9 mm^3 | 101% | 111.7 ± 3.2 mm^3 | –
CO[C@H]1C(=O)[C@]2(C)[C@@H](OC)C[C@H]3OC[C@@]3(OC(C)=O)[C@H]2[C@H](OC(=O)c2ccccc2)[C@]2(O)C[C@H](OC(=O)[C@H](OC(=O)[C@@H](CCN(C)C)C(F)(F)F)[C@@H](NC(=O)OC(C)(C)C)c3ccccc3)C(C)=C1C2(C)C.CS(=O)(=O)O [Compound C35, 2′-O-[4-N,N-dimethylamino-2(R)-2-trifluoromethylbutyryl]cabazitaxel methanesulfonate] | – | – | – | – | −46% | 42.3 ± 12.6 mm^3 | 105% | 110.2 ± 4.6 mm^3 | Weight change (%) D6 ([4]; 13 mg/kg): −15.8%
CO[C@H]1C(=O)[C@]2(C)[C@@H](OC)C[C@H]3OC[C@@]3(OC(C)=O)[C@H]2[C@H](OC(=O)c2ccccc2)[C@]2(O)C[C@H](OC(=O)[C@H](OC(=O)[C@@H](CCN(C)C)C(F)F)[C@@H](NC(=O)OC(C)(C)C)c3ccccc3)C(C)=C1C2(C)C.Cc1ccc(S(=O)(=O)O)cc1 [Compound C36, 2′-O-[4-N,N-dimethylamino-2(R)-2-difluoromethylbutyryl]cabazitaxel p-toluene sulfonate] | – | – | – | – | −37% | – | 85% | – | –
CO[C@H]1C(=O)[C@]2(C)[C@@H](OC)C[C@H]3OC[C@@]3(OC(C)=O)[C@H]2[C@H](OC(=O)c2ccccc2)[C@]2(O)C[C@H](OC(=O)[C@H](O)[C@@H](NC(=O)OC(C)(C)C)c3ccccc3)C(C)=C1C2(C)C [cabazitaxel, reference compound] | – | – | – | – | – | – | – | – | Weight change (%) D6 ([4]; 7 mg/kg): −13.8%; T/C (%) D20 ([4]; 7 mg/kg): −27%; Tumor volume (mm^3) (D20) ([4]; 7 mg/kg): 79.9 ± 24.8 mm^3; Tumor inhibitory percent (%) D20 ([4]; 7 mg/kg): 127%; Tumor volume (mm^3) (D0) ([4]; 7 mg/kg): 111.7 ± 1.8 mm^3
